# Data from US9592243B2, “Medical devices and methods comprising an anabolic agent for treatment of an injury” (Warsaw Orthopedic, Inc., priority 2011, dated 2017).
# System: surgical injury (linear full-thickness incisions)
# Assay: Injury strength of full-thickness surgical incisions, vacuum failure pressure (BTC-2000)
# Type: in vivo, male hairless guinea pigs
# Source text: In a recent proof-of-concept study, male hairless guinea pigs (n=30) receive bilateral incisions as previously described by Storch, Perry, Davidson, and Ward (Surg Infect (Larchmt) 2002; 3 Suppl 1:S89-98) This reference is herein incorporated by reference. Two linear full-thickness incisions exactly 2 cm long and separated by approximately 3 cm were made on the left and right dorsolateral regions of all animals. Incisions extend through the dermis and subcutaneous tissue and panniculus carnosus muscle. After the injuries were created, 200 μL of a […] aqueous suspension (1 mg of drug, ˜2.7 mg/kg) of generic stanozolol was applied directly into the injury bed in the right flank but not left flank of n=16 animals. The injury bed on the left side of these animals received 200 μL of saline vehicle control. In the remaining fourteen animals, incisions were not treated (nothing applied control). Only the incision in the right flank was assessed for injury strength in the nothing applied control animals. All injuries were then closed with interrupted nylon sutures. On days 2, 4, and 6 (in remaining animals), animals in the stanozolol group received 100 μL (0.5 mg, ˜1.4 mg/kg) of the same stanozolol suspension in the right injury and 100 μL of saline in the left injury, carefully injected with an insulin syringe introduced lateral to the injury and directed towards the injury bed. For each time point (days 5 and 7), injury strength was tested in 7 nothing applied control guinea pigs and 8 stanozolol guinea pigs after carefully removing dressing and sutures. Injury strength was measured by applying a vacuum to the injury and recording the pressure at which the injury fails. Biomechanical testing was performed under anesthesia using the […] (SRI Technologies, Nashville). A disposable acrylic test ring was placed around the injury and secured to the skin using acrylate glue. The BTC-2000™ test chamber (2.5 cm ID) was mated to the test ring. An escalating negative pressure was applied to the injury at a rate of 10 mm Hg/second, producing a multi-axial stress on the injury. […]
smiles,measurement,setting,value
C[C@]12Cc3c[nH]nc3C[C@@H]1CC[C@@H]1[C@@H]2CC[C@@]2(C)[C@H]1CC[C@]2(C)O [stanozolol],"Effect on contralateral (saline treated, left flank) injuries in stanozolol treated animals","local stanozolol in right injury only, days 5 and 7",No effect
same,"Injury strength when exposed to pressure, compared to injuries with control or placebo (FIG. 1)","locally injected bolus dose of 1 mg initially, then 0.5 mg on days 2, 4, 6, tested on days 5 and seven",highest injury strength
same,Injury strength (pressure at which the injury fails) compared to nothing applied control injuries,"stanozolol aqueous suspension applied locally into right flank injury, 1 mg initially then 0.5 mg on days 2, 4, 6, tested on days 5 and 7",significantly stronger
